The structures appear in SMILES notation.

As usually defined, the IC50 is the concentration needed to halve the response being measured. Read a low IC50 as inhibition by little substance.

Assay [1] concerns the target T1, WRN [UniPro: Q14191 (WRN_HUMAN), N500-C946] (Homo sapiens (Human), UniProt Q14191). The experiment in a line: WRN ATPase assay (ADP-Glo). Type of assay: biochemical. Conditions: WRN enzymatic activity assay. Background: In ADP-Glo the light output rises with the ADP produced.
The target in assay [2] is T1, WRN [UniPro: Q14191 (WRN_HUMAN), N500-C946]. The assay can be described thus: WRN unwinding assay (FORKF DNA, fluorescence). Type of assay: biochemical. The note with it: Table 14.

T1 sequence (Q14191 500-946): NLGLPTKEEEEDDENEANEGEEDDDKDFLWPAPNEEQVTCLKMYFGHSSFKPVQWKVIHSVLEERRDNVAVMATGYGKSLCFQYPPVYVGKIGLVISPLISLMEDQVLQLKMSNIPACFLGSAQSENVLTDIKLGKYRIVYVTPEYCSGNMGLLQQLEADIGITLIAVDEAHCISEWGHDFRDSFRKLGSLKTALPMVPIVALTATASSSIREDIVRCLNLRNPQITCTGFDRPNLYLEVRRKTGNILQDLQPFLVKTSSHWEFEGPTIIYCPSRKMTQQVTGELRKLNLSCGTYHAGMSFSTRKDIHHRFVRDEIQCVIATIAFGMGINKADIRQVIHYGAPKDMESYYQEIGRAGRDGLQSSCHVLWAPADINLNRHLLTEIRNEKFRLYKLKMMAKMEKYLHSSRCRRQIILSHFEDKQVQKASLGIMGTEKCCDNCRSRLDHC

As for `CCc1c(N2CCN(C(=O)CNC(=O)c3nccs3)CC2)c(=O)n2nc(C3=CCOCC3)nc2n1CC(=O)Nc1ccc(C(F)(F)F)cc1F` [Example 216, N-(2-(4-(2-(3,6-Dihydro-2H-pyran-4-yl)-5-ethyl-4-(2-((2-fluoro-4-(trifluoromethyl)phenyl)amino)-2-oxoethyl)-7-oxo-4,7-dihydro-[1,2,4]triazolo[1,5-a]pyrimidin-6-yl)piperazin-1-yl)-2-oxoethyl)thiazole-2-carboxamide], the IC50 in assay [1] and in assay [2] was under 100 nM throughout.

Turning to `CCc1c(N2CCN(C(=O)CNC(=O)c3ncco3)CC2)c(=O)n2nc(C3=CCOCC3)nc2n1CC(=O)Nc1ccc(C(F)(F)F)cc1F` [Example 217, N-(2-(4-(2-(3,6-Dihydro-2H-pyran-4-yl)-5-ethyl-4-(2-((2-fluoro-4-(trifluoromethyl)phenyl)amino)-2-oxoethyl)-7-oxo-4,7-dihydro-[1,2,4]triazolo[1,5-a]pyrimidin-6-yl)piperazin-1-yl)-2-oxoethyl)oxazole-2-carboxamide], the IC50 in assay [1] and in assay [2] was under 100 nM throughout.

On to `CCc1c(N2CCN(C(=O)CNC(=O)c3cc(C)on3)CC2)c(=O)n2nc(C3=CCOCC3)nc2n1CC(=O)Nc1ccc(C(F)(F)F)cc1F` [Example 218, N-(2-(4-(2-(3,6-Dihydro-2H-pyran-4-yl)-5-ethyl-4-(2-((2-fluoro-4-(trifluoromethyl)phenyl)amino)-2-oxoethyl)-7-oxo-4,7-dihydro-[1,2,4]triazolo[1,5-a]pyrimidin-6-yl)piperazin-1-yl)-2-oxoethyl)-5-methylisoxazole-3-carboxamide], for which the IC50 in assay [1] and in assay [2] was under 100 nM each time.

For `CCc1c(N2CCN(C(=O)CNC(=O)c3ccns3)CC2)c(=O)n2nc(C3=CCOCC3)nc2n1CC(=O)Nc1ccc(C(F)(F)F)cc1F` [Example 219, N-(2-(4-(2-(3,6-Dihydro-2H-pyran-4-yl)-5-ethyl-4-(2-((2-fluoro-4-(trifluoromethyl)phenyl)amino)-2-oxoethyl)-7-oxo-4,7-dihydro-[1,2,4]triazolo[1,5-a]pyrimidin-6-yl)piperazin-1-yl)-2-oxoethyl)isothiazole-5-carboxamide], the IC50 in assay [1] and in assay [2] was under 100 nM throughout.

Take `CCc1c(N2CCN(C(=O)CNC(=O)c3ccno3)CC2)c(=O)n2nc(C3=CCOCC3)nc2n1CC(=O)Nc1ccc(C(F)(F)F)cc1F` [Example 220, N-(2-(4-(2-(3,6-Dihydro-2H-pyran-4-yl)-5-ethyl-4-(2-((2-fluoro-4-(trifluoromethyl)phenyl)amino)-2-oxoethyl)-7-oxo-4,7-dihydro-[1,2,4]triazolo[1,5-a]pyrimidin-6-yl)piperazin-1-yl)-2-oxoethyl)isoxazole-5-carboxamide]: the IC50 in assay [1] and in assay [2] was under 100 nM each time.

On to `CCc1c(N2CCN(C(=O)CNC(=O)c3ccon3)CC2)c(=O)n2nc(C3=CCOCC3)nc2n1CC(=O)Nc1ccc(C(F)(F)F)cc1F` [Example 221, N-(2-(4-(2-(3,6-Dihydro-2H-pyran-4-yl)-5-ethyl-4-(2-((2-fluoro-4-(trifluoromethyl)phenyl)amino)-2-oxoethyl)-7-oxo-4,7-dihydro-[1,2,4]triazolo[1,5-a]pyrimidin-6-yl)piperazin-1-yl)-2-oxoethyl)isoxazole-3-carboxamide], for which the IC50 in assay [1] and in assay [2] was under 100 nM throughout.

As to `CCc1c(N2CCN(C(=O)CNC(=O)c3ncnc(C)c3O)CC2)c(=O)n2nc(C3=CCOCC3)nc2n1CC(=O)Nc1ccc(C(F)(F)F)cc1F` [Example 222, N-(2-(4-(2-(3,6-Dihydro-2H-pyran-4-yl)-5-ethyl-4-(2-((2-fluoro-4-(trifluoromethyl)phenyl)amino)-2-oxoethyl)-7-oxo-4,7-dihydro-[1,2,4]triazolo[1,5-a]pyrimidin-6-yl)piperazin-1-yl)-2-oxoethyl)-5-hydroxy-6-methylpyrimidine-4-carboxamide], the IC50 in assay [1] and in assay [2] was under 100 nM throughout.

As for `CCc1c(N2CCN(C(=O)CNC(=O)c3cc(N(C)C)ccc3F)CC2)c(=O)n2nc(C3=CCOCC3)nc2n1CC(=O)Nc1ccc(C(F)(F)F)cc1F` [Example 224, N-(2-(4-(2-(3,6-Dihydro-2H-pyran-4-yl)-5-ethyl-4-(2-((2-fluoro-4-(trifluoromethyl)phenyl)amino)-2-oxoethyl)-7-oxo-4,7-dihydro-[1,2,4]triazolo[1,5-a]pyrimidin-6-yl)piperazin-1-yl)-2-oxoethyl)-5-(dimethylamino)-2-fluorobenzamide], the IC50 in assay [1] is under 100 nM; in assay [2] it was 100 to 1000 nM.

Take `[2H]C([2H])(NC(=O)c1ccccc1F)C(=O)N1CCN(c2c(CC)n(C([2H])([2H])C(=O)Nc3ccc(C(F)(F)F)cc3F)c3nc(C4=CCOCC4)nn3c2=O)CC1` [Example 225, N-(2-(4-(2-(3,6-Dihydro-2H-pyran-4-yl)-5-ethyl-4-(2-((2-fluoro-4-(trifluoromethyl)phenyl)amino)-2-oxoethyl-1,1-d2)-7-oxo-4,7-dihydro-[1,2,4]triazolo[1,5-a]pyrimidin-6-yl)piperazin-1-yl)-2-oxoethyl-1,1-d2)-2-fluorobenzamide]: the IC50 in assay [1] and in assay [2] was under 100 nM each time.

Take `CCc1c(N2CCN(C(=O)C(=O)Nc3ncco3)CC2)c(=O)n2nc(C3=CCOCC3)nc2n1CC(=O)Nc1ccc(C(F)(F)F)cc1Cl` [Example 226, 2-(4-(4-(2-((2-Chloro-4-(trifluoromethyl)phenyl)amino)-2-oxoethyl)-2-(3,6-dihydro-2H-pyran-4-yl)-5-ethyl-7-oxo-4,7-dihydro-[1,2,4]triazolo[1,5-a]pyrimidin-6-yl)piperazin-1-yl)-N-(oxazol-2-yl)-2-oxoacetamide]: the IC50 in assay [1] and in assay [2] was under 100 nM each time.

In the case of `CCc1c(N2CCN(C(=O)C(=O)Nc3nccs3)CC2)c(=O)n2nc(C3=CCOCC3)nc2n1CC(=O)Nc1ccc(C(F)(F)F)cc1F` [Example 227, 2-(4-(2-(3,6-Dihydro-2H-pyran-4-yl)-5-ethyl-4-(2-((2-fluoro-4-(trifluoromethyl)phenyl)amino)-2-oxoethyl)-7-oxo-4,7-dihydro-[1,2,4]triazolo[1,5-a]pyrimidin-6-yl)piperazin-1-yl)-2-oxo-N-(thiazol-2-yl)acetamide], the 50% inhibitory concentration (IC50) in assay [1] and in assay [2] was under 100 nM each time.

As for `CCc1c(N2CCN(C(=O)C(=O)Nc3ncco3)CC2)c(=O)n2nc(C3=CCOCC3)nc2n1CC(=O)Nc1ccc(C(F)(F)F)cc1F` [Example 228, 2-(4-(2-(3,6-Dihydro-2H-pyran-4-yl)-5-ethyl-4-(2-((2-fluoro-4-(trifluoromethyl)phenyl)amino)-2-oxoethyl)-7-oxo-4,7-dihydro-[1,2,4]triazolo[1,5-a]pyrimidin-6-yl)piperazin-1-yl)-N-(oxazol-2-yl)-2-oxoacetamide], the IC50 in assay [1] and in assay [2] was under 100 nM throughout.

In the case of `CCc1c(N2CCN(C(=O)C(=O)Nc3ccccn3)CC2)c(=O)n2nc(C3=CCOCC3)nc2n1CC(=O)Nc1ccc(C(F)(F)F)cc1F` [Example 229, 2-(4-(2-(3,6-Dihydro-2H-pyran-4-yl)-5-ethyl-4-(2-((2-fluoro-4-(trifluoromethyl)phenyl)amino)-2-oxoethyl)-7-oxo-4,7-dihydro-[1,2,4]triazolo[1,5-a]pyrimidin-6-yl)piperazin-1-yl)-2-oxo-N-(pyridin-2-yl)acetamide], the IC50 in assay [1] is 100 to 1000 nM; in assay [2], under 100 nM.

In the case of `CCc1c(N2CCN(C(=O)CNC(=O)c3ccccc3)CC2)c(=O)n2nc(N3CCOCC3)nc2n1CC(=O)Nc1ccc(C(F)(F)F)cc1Cl` [Example 231, N-(2-(4-(4-(2-((2-Chloro-4-(trifluoromethyl)phenyl)amino)-2-oxoethyl)-5-ethyl-2-morpholino-7-oxo-4,7-dihydro-[1,2,4]triazolo[1,5-a]pyrimidin-6-yl)piperazin-1-yl)-2-oxoethyl)benzamide], the IC50 in assay [1] and in assay [2] was under 100 nM throughout.

Take `CCc1c(N2CCN(C(=O)CNC(=O)c3ccccc3)CC2)c(=O)n2nc(N3Cc4ccncc4C3)nc2n1CC(=O)Nc1ccc(C(F)(F)F)cc1Cl` [Example 232, N-(2-(4-(4-(2-((2-Chloro-4-(trifluoromethyl)phenyl)amino)-2-oxoethyl)-2-(1,3-dihydro-2H-pyrrolo[3,4-c]pyridin-2-yl)-5-ethyl-7-oxo-4,7-dihydro-[1,2,4]triazolo[1,5-a]pyrimidin-6-yl)piperazin-1-yl)-2-oxoethyl)benzamide]: the IC50 in assay [1] and in assay [2] was under 100 nM in each case.

In the case of `CCc1c(N2CCN(C(=O)CNC(=O)c3ccccc3)CC2)c(=O)n2nc(N3CC4COCC4C3)nc2n1CC(=O)Nc1ccc(C(F)(F)F)cc1Cl` (stereo not drawn) [Example 233, N-(2-(4-(4-(2-((2-Chloro-4-(trifluoromethyl)phenyl)amino)-2-oxoethyl)-5-ethyl-7-oxo-2-(tetrahydro-1H-furo[3,4-c]pyrrol-5 (3H)-yl)-4,7-dihydro-[1,2,4]triazolo[1,5-a]pyrimidin-6-yl)piperazin-1-yl)-2-oxoethyl)benzamide], the IC50 in assay [1] and in assay [2] was under 100 nM in each case.

On to `CCc1c(N2CCN(C(=O)CNC(=O)c3ccccc3)CC2)c(=O)n2nc(N3CCc4ncccc43)nc2n1CC(=O)Nc1ccc(C(F)(F)F)cc1Cl` [Example 234, N-(2-(4-(4-(2-((2-Chloro-4-(trifluoromethyl)phenyl)amino)-2-oxoethyl)-2-(2,3-dihydro-1H-pyrrolo[3,2-b]pyridin-1-yl)-5-ethyl-7-oxo-4,7-dihydro-[1,2,4]triazolo[1,5-a]pyrimidin-6-yl)piperazin-1-yl)-2-oxoethyl)benzamide], for which the IC50 in assay [1] is 100 to 1000 nM; in assay [2], under 100 nM.

Consider `CCc1c(N2CCN(C(=O)CNC(=O)c3ccccc3)CC2)c(=O)n2nc(N3CC4(COC4)C3)nc2n1CC(=O)Nc1ccc(C(F)(F)F)cc1Cl` [Example 235, N-(2-(4-(4-(2-((2-Chloro-4-(trifluoromethyl)phenyl)amino)-2-oxoethyl)-5-ethyl-7-oxo-2-(2-oxa-6-azaspiro[3.3]heptan-6-yl)-4,7-dihydro-[1,2,4]triazolo[1,5-a]pyrimidin-6-yl)piperazin-1-yl)-2-oxoethyl)benzamide], for which the IC50 in assay [1] and in assay [2] was 100 to 1000 nM throughout.
